A short description of assay [1]: Body weight in C57BL/KsJ-db/db diabetic mice. Type of assay: in vivo. The conditions noted are these: 2 mg/kg/3 days i.p. for 30 days, compared with control group, after week 2. The procedure:
Male C57BL/KsJ-db/db mice (diabetic deficiency knockout mice) at 5 weeks of age (23 g) were fed a pelletized commercial chow diet for acclimation from the arrival for 2 weeks. […]. They were given free access to food and distilled water, and the food consumption and body weight gain were measured daily and weekly, respectively. […]; and (2) group 2 served as diabetic mice administered C70PLY4 (2 mg/kg/3 days) in aqueous suspension i.p. for 30 days (C70PLY4). […] The blood was centrifuged at 1000 g for 15 min at 4° C., and plasma and erythrocyte were separated. The livers and adipose tissues were removed, washed, weighted, and frozen at −70° C. until analyzed.

The subject of assay [2] is neointima formation of aorta. Nature of the assay: Neointima formation of aorta (HE stain) in STZ-treated HFD-fed rats. Type of assay: in vivo. The procedure:
The ascending part of aorta were taken from mice, including control health mice and HFD induced diabetic mice, with and without treatment of C70PLY4, and kept in 10% formalin buffered for 24 h. The specimens were routinely embedded in paraffin blocks and cut in transversal sections (3 μm). The slides were stained with hematoxylin and eosin. The specimens were analyzed with light microscope.
The present study determined if C70PLY4 attenuates the status of atherosclerosis in HFD-fed rats.

Assay [3] concerns TLR4. Nature of the assay: LPS-induced PMN transendothelial migration, PMNs from wild type C3H/HeN mice. Type of assay: cell-based. The method, then:
To obtain mice neutrophils from TLR4-deficient [TLR4(−/−)] C3H/HeJ mice and wild type C3H/HeN mice, inflammation was induced by 0.1 ml of uric acid solution into the peritoneal cavity of the mouse. The uric acid solution (noncrystalline form) was prepared by mixing with saline (10% [wt/vol]) and sonicated for 10 min. Immediately before inoculation, the milky white precipitated uric acid solution was shaken vigorously. Peritoneal exudate cells were harvested 4, 18, or 24 h after injection by two lavages of the peritoneal cavity with 5 ml of cold phosphate-buffered saline (PBS; total volume, 10 ml). Uric acid-induced peritoneal cells (UAPMN) were washed by centrifugation at 200×g for 10 min at 4° C. Followed by hypotonic lysis to eliminate red blood cells, centrifugation and an additional wash were performed. The cells were then resuspended in Krebs-Ringer phosphate buffer (KRG; pH 7.3). The numbers and populations of peritoneal exudate cells were determined by staining the nuclei with Turk reagent and by cytospin centrifugation followed by May-Grünwald-Giemsa staining, respectively. Uric acid injection into the peritoneal cavity gave a yield of 1 to 2×10^7 cells/mouse depending on time of incubation (4 hr). The levels of purity of the uric acid-induced PMN were 95% after 4 h postinjection. Viability of the isolated neutrophils exceeded 95% as determined by trypan blue exclusion. The PMN from TLR4(−/−) C3H/HeJ mice and wild type C3H/HeN mice were then used for PMN transmigration Assay.
Neutrophils from human were isolated blood that was drawn in a syringe containing preservative-free heparin (20 U/ml final), and mixed with an equal volume of PBS containing 3% dextran and then incubated for 20 min at room temperature. The leukocyte-rich plasma (upper layer) was collected and pellet cells was obtained from the plasma by centrifuge and resuspended in 0.9% NaCl. Layer 10 ml Ficoll-Hypaque solution beneath the cell suspension. After centrifuge 1500×g for 20 min, aspirate the Ficoll-Hypaque layer, leaving the neutrophil/RBC pellet. Cells were subjected to hypotonic lysis by resuspending each neutrophil/RBC pellet in cold 0.2% NaCl for 30 sec. At the end of this period, restore isotonicity by adding ice-cold 1.6% NaCl. After centrifuge, resuspend cells in ice-cold PBS/glucose buffer. Neutrophils from mice were isolated from the peritoneum as previously described. See, e.g., Rabes et al., Curr Top Microbiol Immunol 397:215-227 (2016). The cell concentration was adjusted to […]. The viability of the isolated neutrophils exceeded 95%, as determined by Trypan blue exclusion.
Transendothelial migration was performed by using a Transwell system. Transwell filters were pre-seeded with HUVEC monolayers for 24 hrs and transferred to clean 24-well plates. HUVECs were washed twice with DPBS, 500 μl of ECM was added to the Transwell filter compartment and 10^6 neutrophils were then added in upper chamber. Transendothelial migration was stimulated by addition of LPS to the lower chamber to a final concentration of 1 μg/ml. Cells were incubated with the endothelial cells for 1 h at 37° C. At the conclusion of the incubation, migrated cells were collected from the lower chamber and counted in a hemacytometer in triplicate. Percent PMN transmigration was calculated by dividing the number of PMN recovered from the lower chamber by the number of PMN initially added.
PMN transendothelial migration plays an important role in early stage of atherogenesis. […].

Assay [4] relates to ERK1/2 and NFκB-p65 subunit phosphorylation. Nature of the assay: Western blot of LPS-induced ERK1/2 and NFκB-p65 phosphorylation in HUVECs. Type of assay: cell-based, human. The conditions noted are these: LPS 1 μg/mL plus C70PLY4 100, 300 and 500 nM, 24 h. The procedure: Cells were kept as the control, treated with LPS (1 μg/mL), or co-treated with LPS (1 μg/mL) and C70PLY4 (100, 300, and 500 nM) for 24 h and the phosphorylation of ERK1/2 and NFκB-p65 subunit were determined by Western blot. Cells were collected by scraping and lysed with RIPA buffer containing 1% NP-40, 0.5% sodium deoxycholate, 0.1% SDS, and a protease inhibitor mixture (PMSF, aprotinin, and sodium orthovanadate). The total cell lysate (50 μg of protein) was separated by SDS-polyacrylamide gel electrophoresis (PAGE) (10% running, 4% stacking) and transferred onto a polyvinylidene fluoride membrane (Immobilon P, 0.45-μm pore size). The membrane was then incubated with the designated antibodies. Immunodetection was performed by using the Western-Light chemiluminescent detection system (Applied Biosystems, Foster City, Calif.).
The present study determined if C70PLY4 inhibits LPS-induced signaling, including protein ERK1/2 and NFκB-p65 subunit, in the human umbilical vein endothelial cells (HUVECs) by using western blot assay (FIG. 14, panel A). The cells were kept as control, treated with LPS (1 μg/mL) only for 24 h, or co-treated with LPS (1 μg/mL) and C70PLY4 (100, 300, and 500 nM) for 24 h and the protein phosphorylation of ERK1/2 and NFκB-p65 subunit were examined.
A general note: In western blotting, separated proteins are transferred to a membrane and probed.

For the sequence “QDLTAHFTTSIPLKGNVRNLSVKIRECTGLAWEWWRTVYEKTDLPLVRKRTISIWGTTLYPQVEDKVEND [C70PLY4]”, the body weight result in assay [1] is recorded as “significantly decreases”. Also, in assay [2], the “neointima formation of aorta induced by STZ” value is “significantly attenuated the status of neointima formation”. For the same sequence, the “PMNs migration, WT mice model (FIG. 10)” value in assay [3] (PMNs from C3H/HeN mice, LPS 1 μg/ml, HUVEC monolayer Transwell) is on record as “significant inhibition of PMNs cell migration”. Moreover, the “LPS induced PMN migration (FIGS. 11-12)” value in assay [3] (WT mice model, LPS-induced) is listed as “inhibitory effects”. In addition, in assay [4], the “LPS-induced ERK1/2 phosphorylation” value is on record as “significantly inhibited” and the “LPS-induced NFκB-p65 subunit phosphorylation” value is listed as “significantly inhibited”.

The values are drawn from patent US10287328B2, “Treatment of diabetes, toll-like receptor 4 modulators and methods for using the same” (KeMyth Biotech Co., Ltd., priority 2016, dated 2019).
